From patent US20230219951A1, “PYRIDINE-PYRIMIDINE DERIVATIVE, PREPARATION METHOD THEREFOR AND PHARMACEUTICAL USE THEREOF” (Jiangsu Hengrui Pharmaceuticals Co., Ltd., priority 2020, published 2023)

Key:
hERG potassium channel = molecular target: T1, hERG potassium channel (Homo sapiens, UniProt Q12809); experiment: Manual patch-clamp of hERG potassium currents in CHO cells stably expressing hERG channel; assay type: cell-based; conditions: read-out: IC50(μM), blocking effect on the hERG potassium ion channel
T1 construct: host or cells: CHO
T1 sequence (Q12809 whole entry): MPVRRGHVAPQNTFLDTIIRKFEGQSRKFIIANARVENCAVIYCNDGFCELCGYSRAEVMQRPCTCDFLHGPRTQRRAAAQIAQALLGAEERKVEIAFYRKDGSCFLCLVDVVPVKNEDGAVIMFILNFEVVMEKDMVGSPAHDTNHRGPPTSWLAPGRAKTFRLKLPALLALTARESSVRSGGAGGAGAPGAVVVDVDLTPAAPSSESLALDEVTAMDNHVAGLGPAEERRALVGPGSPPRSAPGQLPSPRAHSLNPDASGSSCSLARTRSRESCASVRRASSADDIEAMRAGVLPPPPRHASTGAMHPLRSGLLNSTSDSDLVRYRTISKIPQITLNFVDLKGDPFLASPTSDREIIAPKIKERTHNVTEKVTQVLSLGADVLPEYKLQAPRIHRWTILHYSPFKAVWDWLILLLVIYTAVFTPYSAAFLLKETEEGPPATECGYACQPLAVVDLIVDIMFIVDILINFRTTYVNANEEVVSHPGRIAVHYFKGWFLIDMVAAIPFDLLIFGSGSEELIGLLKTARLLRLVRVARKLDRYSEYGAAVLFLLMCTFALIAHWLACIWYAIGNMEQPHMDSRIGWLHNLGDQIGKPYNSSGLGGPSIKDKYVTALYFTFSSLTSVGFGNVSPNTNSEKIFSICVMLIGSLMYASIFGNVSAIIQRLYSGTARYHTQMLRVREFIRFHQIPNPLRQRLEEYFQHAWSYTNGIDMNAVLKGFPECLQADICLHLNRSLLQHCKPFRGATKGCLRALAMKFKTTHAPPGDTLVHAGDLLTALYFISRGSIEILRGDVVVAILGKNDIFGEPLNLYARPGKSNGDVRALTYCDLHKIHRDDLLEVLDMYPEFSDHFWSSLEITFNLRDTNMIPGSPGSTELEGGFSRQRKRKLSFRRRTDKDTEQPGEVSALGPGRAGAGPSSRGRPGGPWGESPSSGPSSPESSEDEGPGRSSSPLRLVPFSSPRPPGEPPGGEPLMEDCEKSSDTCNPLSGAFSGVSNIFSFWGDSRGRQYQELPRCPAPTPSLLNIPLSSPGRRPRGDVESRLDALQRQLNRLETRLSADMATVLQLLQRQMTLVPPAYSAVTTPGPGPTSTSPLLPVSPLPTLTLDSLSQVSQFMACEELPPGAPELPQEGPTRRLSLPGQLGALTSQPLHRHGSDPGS
Experimental: This example is intended to test the blocking effect of the compounds of the present disclosure on hERG potassium currents in a stable cell strain transfected with an hERG potassium channel by a manual patch-clamp assay.
The cells used in this experiment were from a CHO cell line (provided by Sophion Bioscience, Denmark) transfected with hERG cDNA and stably expressing hERG channel at cell passage number of P5. Cells were cultured in a medium containing the following components (all from Invitrogen): Ham's F12 medium, 10% (v/v) inactivated fetal bovine serum, […] hygromycin B, and […] geneticin. CHO hERG cells were grown in a culture dish containing the above culture medium and cultured in an incubator at 37° C. with 5% CO2. […]
In this experiment, a manual patch-clamp system (HEKA EPC-10 signal amplifier and digital conversion system, purchased from HEKA Electronics, Germany) was used for whole cell current recording. […] After the hERG potassium currents recorded in the above step were stable under the continuous extracellular fluid perfusion in the recording chamber, the drug to be tested could be added for perfusion until the inhibition effect of the drug on the hERG current reached a stable state. […]
The blocking effect of the compound of the present disclosure on hERG potassium currents was determined by the above test.

[1] = test system: ERK phosphorylation of H358 cells; experiment: Inhibition of ERK phosphorylation of H358 cells (HTRF pERK/total ERK); assay type: cell-based; conditions: Homo sapiens, NCI-H358, 1 h incubation, pERK/total ERK ratio
How it was run: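 H358 (KRAS G12C) cells were treated 1 h at 37°C with compound, 9 points by 5-fold dilution from 10 μM (final), 0.1% DMSO blank. Lysates were probed by HTRF with phospho-ERK1/2 and total-ERK1/2 antibodies overnight at room temperature, and IC50 was fitted from the pERK/total ERK ratio.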

**Q.** With `Cc1nc(N[C@H](C)c2cccc(C(F)F)c2F)c2cc([C@]3(O)CC[C@@H](O)CC3)c(=O)[nH]c2n1` [Example 18-p1, 4-(((R)-1-(3-(difluoromethyl)-2-fluorophenyl)ethyl)amino)-6-((1s,4S)-1,4-dihydroxycyclohexyl)-2-methylpyrido[2,3-d]pyrimidin-7(8H)-one] as the compound, how does the IC50 (hERG potassium channel) read?
**A.** > 30 µM

**Q.** What about the IC50 [1] of the same compound?
**A.** 51 nM
